SMILES strings stand for the structures. A value given as a limit tells only on which side of the number the result lay.

T1 sequence (Q9Y5N1 with tags, fused parts or gaps): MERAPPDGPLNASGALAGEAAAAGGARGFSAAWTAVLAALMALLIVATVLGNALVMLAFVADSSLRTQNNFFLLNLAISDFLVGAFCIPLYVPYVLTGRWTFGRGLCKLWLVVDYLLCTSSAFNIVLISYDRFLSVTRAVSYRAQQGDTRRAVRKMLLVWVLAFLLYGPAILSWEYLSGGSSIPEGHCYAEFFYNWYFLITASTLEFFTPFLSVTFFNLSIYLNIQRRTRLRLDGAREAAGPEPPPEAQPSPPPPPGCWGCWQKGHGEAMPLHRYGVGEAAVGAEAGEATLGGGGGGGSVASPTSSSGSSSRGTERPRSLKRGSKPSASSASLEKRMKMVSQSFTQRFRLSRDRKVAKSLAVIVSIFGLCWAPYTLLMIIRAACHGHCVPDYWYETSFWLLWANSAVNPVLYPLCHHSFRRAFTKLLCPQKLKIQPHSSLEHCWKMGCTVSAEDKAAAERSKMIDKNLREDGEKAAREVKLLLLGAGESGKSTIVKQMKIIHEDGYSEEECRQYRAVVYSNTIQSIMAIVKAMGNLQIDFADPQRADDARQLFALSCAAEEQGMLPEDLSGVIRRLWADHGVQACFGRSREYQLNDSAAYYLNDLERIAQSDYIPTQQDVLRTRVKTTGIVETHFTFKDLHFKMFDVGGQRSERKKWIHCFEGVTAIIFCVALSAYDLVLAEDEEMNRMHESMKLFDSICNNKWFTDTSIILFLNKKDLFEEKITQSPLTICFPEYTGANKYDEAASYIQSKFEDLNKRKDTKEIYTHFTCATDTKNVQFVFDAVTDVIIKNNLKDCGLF

The first assay has as its target T1, chimeric human H3 receptor (Homo sapiens, UniProt Q9Y5N1).
T1 construct: made in house; host or cells: Sf9 insect cells (baculovirus); P2 membrane preparation
Put plainly: Chimeric human H3 receptor GTP binding assay (agonist-stimulated GTP-gamma35S binding, Example 7). Format: biochemical. The note with it: Table I; P2 membranes of Sf9 cells, 1 μM histamine as agonist, Ki from IC50 by Cheng-Prusoff. A digest of the protocol:
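Sf9 membranes co-expressing chimeric human H3 receptor and heterotrimeric G-protein, 35 μg/tube, in pH 7.4 Tris buffer with 10 μM GDP. Test compounds (10^−10–10^−6 M) competed against 1 μM histamine, […] GTP-gamma35S, 60 min at room temperature. Filter-bound radioactivity counted; IC50 converted to Ki by Cheng-Prusoff. Agonism/inverse agonism tested without histamine (EC50).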
(In general: GTPγS resists hydrolysis and so accumulates on activated G proteins.)
As to `N#Cc1ccc2c(c1)CCN(CC(=O)N1CCN(C3CCC3)CC1)C2` [Compound 69, 2-[2-(4-cyclobutylpiperazin-1-yl)-2-oxoethyl]-1,2,3,4-tetrahydroisoquinoline-6-carbonitrile], the Ki (commonly a dissociation constant, usually derived from enzyme kinetics or from competition with a known ligand) was below 1000 nM.

For `CS(=O)(=O)c1cccc(-c2ccc3c(c2)CCN(CC(=O)N2CCN(C4CCC4)CC2)C3)c1` [Compound 74, 2-[2-(4-cyclobutylpiperazin-1-yl)-2-oxoethyl]-6-[3-(methylsulfonyl)phenyl]-1,2,3,4-tetrahydroisoquinoline], the Ki is below 1000 nM.

Still in this assay, the particulars now being: Table II "Ki", symbol *; assay of Example 7.
On to `COc1cc(-c2ccc3c(c2)CCN(CC(=O)N2CCN(C4CCC4)CC2)C3)nc(OC)n1` [Compound 635, 2-[2-(4-cyclobutylpiperazin-1-yl)-2-oxoethyl]-6-(2,6-dimethoxypyrimidin-4-yl)-1,2,3,4-tetrahydroisoquinoline], for which the Ki is below 1000 nM.

Still in this assay, the particulars now being: Table II; "*" = Ki in assay of Example 7 less than 1 micromolar.
Regarding `CCC1CCC[C@H]2CN(C(=O)CN3CCc4cc(-c5cncnc5)ccc4C3)CCN12` (stereo in doubt) [Compound 160, 6-ethyl-2-[(6-pyrimidin-5-yl-3,4-dihydroisoquinolin-2(1H)-yl)acetyl]octahydro-2H-pyrido[1,2-a]pyrazine], the Ki is below 1000 nM. Regarding `O=C(CN1CCc2nc(Cl)ccc2C1)N1CCN(C2CCC2)CC1` [Compound 168, 2-chloro-6-[2-(4-cyclobutylpiperazin-1-yl)-2-oxoethyl]-5,6,7,8-tetrahydro-1,6-naphthyridine], the Ki was below 1000 nM. `COc1ccc(-n2cc3c(n2)CCN(CC(=O)N2CCN(C4CCC4)CC2)C3)nn1` [Compound 199, 5-[2-(4-cyclobutylpiperazin-1-yl)-2-oxoethyl]-2-(6-methoxypyridazin-3-yl)-4,5,6,7-tetrahydro-2H-pyrazolo[4,3-c]pyridine]: the Ki is below 1000 nM.

On to `COc1ccc(-n2cc3c(n2)CCN(CC(=O)N2CCN(C4CCC4)CC2)C3)cc1` [Compound 238, 5-[2-(4-cyclobutylpiperazin-1-yl)-2-oxoethyl]-2-(4-methoxyphenyl)-4,5,6,7-tetrahydro-2H-pyrazolo[4,3-c]pyridine], for which the Ki is below 1000 nM. Take `CN(C)c1ccc2c(n1)CCN(CC(=O)N1CCN(C3CCC3)CC1)C2` [Compound 224, 6-[2-(4-cyclobutylpiperazin-1-yl)-2-oxoethyl]-N,N-dimethyl-5,6,7,8-tetrahydro-1,6-naphthyridin-2-amine]: the Ki is below 1000 nM. Still for that read-out and setting: the figure for `CC(=O)c1ccc(-n2ncc3c2CCN(CC(=O)N2CCN(C4CCC4)CC2)C3)cc1` [Compound 92, 1-(4-{5-[2-(4-cyclobutylpiperazin-1-yl)-2-oxoethyl]-4,5,6,7-tetrahydro-1H-pyrazolo[4,3-c]pyridin-1-yl}phenyl)ethanone] is below 1000 nM. Still for that read-out and setting: under `C[C@H]1CCCN1c1ccc2c(n1)CCN(CC(=O)N1CCN(C3CCC3)CC1)C2` (stereo in doubt) [Compound 223, 6-[2-(4-cyclobutylpiperazin-1-yl)-2-oxoethyl]-2-(2-methylpyrrolidin-1-yl)-5,6,7,8-tetrahydro-1,6-naphthyridine] stands below 1000 nM.

Still in this assay, the particulars now being: Table II; assay of Example 7.
Regarding `NC(=O)C1CCN(c2ncc3c(n2)CCN(CC(=O)N2CCN(C4CCC4)CC2)C3)CC1` [Compound 691, 1-{6-[2-(4-cyclobutylpiperazin-1-yl)-2-oxoethyl]-5,6,7,8-tetrahydropyrido[4,3-d]pyrimidin-2-yl}piperidine-4-carboxamide], the inhibition constant (Ki) was below 1000 nM. `N#CC1CCN(c2ncc3c(n2)CCN(CC(=O)N2CCN(C4CCC4)CC2)C3)CC1` [Compound 690, 1-{6-[2-(4-cyclobutylpiperazin-1-yl)-2-oxoethyl]-5,6,7,8-tetrahydropyrido[4,3-d]pyrimidin-2-yl}piperidine-4-carbonitrile]: the Ki was below 1000 nM.

Still in this assay, the particulars now being: assay of Example 7; "*" in Ki of Table II.
Turning to `CCc1ccc(-c2nc3c(s2)CN(CC(=O)N2CCN(C4CCC4)CC2)CC3)cc1` [Compound 311, 5-[2-(4-cyclobutylpiperazin-1-yl)-2-oxoethyl]-2-(4-ethylphenyl)-4,5,6,7-tetrahydro[1,3]thiazolo [5,4-c]pyridine], the Ki is below 1000 nM. Still for that read-out and setting: the figure for `N#Cc1ccc(-c2nc3c(s2)CN(CC(=O)N2CCN(C4CCC4)CC2)CC3)cc1` [Compound 368, 4-{5-[2-(4-cyclobutylpiperazin-1-yl)-2-oxoethyl]-4,5,6,7-tetrahydro[1,3]thiazolo [5,4-c]pyridin-2-yl}benzonitrile] is below 1000 nM; for `CCC(C)N1CCN(C(=O)CN2CCc3cc(-c4ccc(OC)nc4)ccc3C2)CC1` (stereo not shown) [Compound 383, 2-[2-(4-sec-butylpiperazin-1-yl)-2-oxoethyl]-6-(6-methoxypyridin-3-yl)-1,2,3,4-tetrahydroisoquinoline] it is below 1000 nM; for `Cc1cc(C)cc(-c2nc3c(s2)CN(CC(=O)N2CCN(C4CCC4)CC2)CC3)c1` [Compound 310, 5-[2-(4-cyclobutylpiperazin-1-yl)-2-oxoethyl]-2-(3,5-dimethylphenyl)-4,5,6,7-tetrahydro[1,3]thiazolo [5,4-c]pyridine] it is below 1000 nM. For `COc1ccc(-c2ccc(-c3nc4c(s3)CN(CC(=O)N3CCN(C5CCC5)CC3)CC4)cc2)cc1` [Compound 321, 5-[2-(4-cyclobutylpiperazin-1-yl)-2-oxoethyl]-2-(4′-methoxybiphenyl-4-yl)-4,5,6,7-tetrahydro[1,3]thiazolo [5,4-c]pyridine], the Ki was below 1000 nM. With `COc1ccc(-c2nc3c(s2)CN(CC(=O)N2CCN(C4CCC4)CC2)CC3)c(OC)c1` [Compound 340, 5-[2-(4-cyclobutylpiperazin-1-yl)-2-oxoethyl]-2-(2,4-dimethoxyphenyl)-4,5,6,7-tetrahydro[1,3]thiazolo [5,4-c]pyridine], the Ki is below 1000 nM.

The target of the next assay is T1, chimeric human H3 receptor. As to the kind of experiment: Chimeric human H3 receptor screening GTP binding assay (inhibition of histamine-stimulated GTP-gamma35S binding, Example 8). The following applies: 4 μM of the compound, 1 μM histamine, "†" in Ki of Table II, read-out: percent inhibition of the signal obtained with 1 μM histamine. Format: biochemical. The method, then:
This Example illustrates a representative screening assay for evaluating inhibition of histamine-stimulated GTP-gamma^35S binding. Such GTP binding activity can be used to identify H3 antagonists and inverse agonists. A compound analyzed in this assay is referred to herein as a “test compound,” and the initial identification of antagonists and inverse agonists is performed using a test compound concentration of 4 μM.
Four independent baculoviral stocks (one directing the expression of the chimeric human H3 receptor and three directing the expression of each of the three subunits of a heterotrimeric G-protein) are used to infect a culture of Sf9 cells as described above. P2 membranes are prepared as described above, and are resuspended by Dounce homogenization (tight pestle) in GTP binding assay buffer (50 mM Tris pH 7.4, 120 mM NaCl, 5 mM MgCl2, 2 mM EGTA, 1 mg/ml BSA, 0.2 mg/ml bacitracin, 0.02 mg/ml aprotinin, 0.01 mg/ml saponin, 10 μM GDP) and added to assay tubes at a concentration of 35 μg protein/reaction tube. Non-radiolabeled test compounds are added to separate reactions at a concentration of 4 μM along with 1 μM histamine (agonist). Reactions are initiated by the addition of […] GTP-gamma^35S with a final assay volume of 0.20 ml.
After a 60-min incubation at room temperature, reactions are terminated by vacuum filtration over GF/C filters (pre-soaked in 50 mM Tris pH 7.4, 120 mM NaCl plus 0.1% BSA) followed by washing with ice-cold buffer (50 mM Tris pH 7.4, 120 mM NaCl). The amount of receptor-bound (and thereby membrane-bound) GTP-gamma^35S is determined by measuring the bound radioactivity, preferably by liquid scintillation spectrometry of the washed filters. Non-specific binding is determined using 10 uM GTP-gammaS and typically represents less than 5 percent of total binding. After subtraction of non-specific binding, data is expressed as percent inhibition of 1 μM histamine signal.
Neutral antagonists are those test compounds that reduce the histamine-stimulated GTP binding activity towards, but not below, baseline levels. In contrast, in the absence of added histamine, inverse agonists reduce the GTP binding activity of the receptor-containing membranes below baseline. Any test compound that elevates GTP binding activity above baseline in the absence of added histamine in this assay is defined as having agonist activity.
Regarding `Cc1cc(C)cc(-c2ccc3c(c2)CCN(CC(=O)N2CCN(C(C)C)CC2)C3)c1` [Compound 458, 6-(3,5-dimethylphenyl)-2-[2-(4-isopropylpiperazin-1-yl)-2-oxoethyl]-1,2,3,4-tetrahydroisoquinoline], the inhibition (usually the relative decrease from the control value, in per cent) at 4 µM was at least 90%. `CCCc1ccc(-c2ccc3c(c2)CCN(CC(=O)N2CCN(C4CCC4)CC2)C3)cc1` [Compound 463, 2-[2-(4-cyclobutylpiperazin-1-yl)-2-oxoethyl]-6-(4-propylphenyl)-1,2,3,4-tetrahydroisoquinoline]: the inhibition at 4 µM was at least 90%. Regarding `CC(C)N1CCN(C(=O)CN2CCc3cc(-c4ccc5c(c4)OCCO5)ccc3C2)CC1` [Compound 385, 6-(2,3-dihydro-1,4-benzodioxin-6-yl)-2-[2-(4-isopropylpiperazin-1-yl)-2-oxoethyl]-1,2,3,4-tetrahydroisoquinoline], the inhibition at 4 µM is at least 90%. The same measure, in the same setting: the figure for `COc1cccc(-c2ccc3c(c2)CCN(CC(=O)N2CCN(C4CCCCC4)CC2)C3)c1` [Compound 477, 2-[2-(4-cyclohexylpiperazin-1-yl)-2-oxoethyl]-6-(3-methoxyphenyl)-1,2,3,4-tetrahydroisoquinoline] is at least 90%; for `Cc1ccc(-c2ccc3c(c2)CCN(CC(=O)N2CCN(C(C)C)CC2)C3)cc1` [Compound 438, 2-[2-(4-isopropylpiperazin-1-yl)-2-oxoethyl]-6-(4-methylphenyl)-1,2,3,4-tetrahydroisoquinoline] it is at least 90%.

The same assay, now with this note: Table II "Ki", symbol †, 4 μM of the compound, 1 μM histamine, read-out: percent inhibition of the signal obtained with 1 μM histamine.
With `CSc1cccc(-c2ccc3c(c2)CCN(CC(=O)N2CCN(C4CCC4)CC2)C3)c1` [Compound 494, 2-[2-(4-cyclobutylpiperazin-1-yl)-2-oxoethyl]-6-[3-(methylthio)phenyl]-1,2,3,4-tetrahydroisoquinoline], the inhibition at 4 µM was at least 90%. Still for that read-out and setting: the figure for `CC(C)N1CCN(C(=O)CN2CCc3cc(-c4cccc(N(C)C)c4)ccc3C2)CC1` [Compound 539, 3-{2-[2-(4-isopropylpiperazin-1-yl)-2-oxoethyl]-1,2,3,4-tetrahydroisoquinolin-6-yl}-N,N-dimethylaniline] is at least 90%.

For the origin of these results see patent US20110082130A1 (LIGAND PHARMACEUTICALS, INC., priority 2006, published 2011).
